This note sets out measurements from BindingDB's records for doi:10.1021/acs.jmedchem.9b01143 (2019).

For this assay, the target named is Activin receptor type-2A (ACVR2A) (Homo sapiens) (UniProt P27037). In words: Inhibition of human recombinant ACTR2 (162 to end residues) using casein as substrate incubated for 120 mins in presence of [gamma-33P]ATP by radiometric scintillation counting analysis.

pIC50: −log10 of the molar value. Where only a bound is given, the exact number is not on record here.

As to `CN(C)c1ccc(C(=O)Nc2cccc(NC(=O)COc3ccc4c(=O)ccoc4c3)c2)cc1`, the pIC50 is < 5.00.

As usually defined, the pIC50 is the IC50 on a negative log10 scale, so that one unit is a factor of ten.
